Results on 24 compounds are retold here after US10201546B2, “Quinolinyl modulators of RORγt” (Janssen Pharmaceutica NV, priority 2013, dated 2019).

One may read the pIC50 as the IC50 on a negative log10 scale, so that one unit is a factor of ten. The term inhibition denotes the drop in the measured response relative to a control, in per cent. For orientation: pKd means −log10 of the Kd, conventionally taken in molar units.

For experiment [1], the system named is IL-17 production by CD4+ T cells under conditions which favor Th17 differentiation. The experiment can be described thus: Human Th17 assay (IL-17 production by CD4 T cells). The experiment is classed as cell-based.
Description: The human Th17 assay tests the effect of RORγt modulatory compounds on IL-17 production by CD4 T cells under conditions which favor Th17 differentiation. Total CD4^+ T cells were isolated from the peripheral blood mononuclear cells (PBMC) of healthy donors using a CD4^+ T cell isolation kit II, following the manufacturer's instructions (Miltenyi Biotec). […] 50 μL of compound at titrated concentrations in DMSO were added into each well at final DMSO concentration at 0.2%. Cells were incubated for 1 hour, then 50 μL of Th17 cell differentiation medium was added to each well. The final concentrations of antibodies and cytokines (R&D Systems) in differentiation medium were: 3×10^6/mL anti-CD3/CD28 beads (prepared using human T cell activation/expansion kit, Miltenyi Biotec), 10 μg/mL anti-IL4, 10 μg/mL anti-IFNγ, 10 ng/mL IL113, 10 ng/mL IL23, 50 ng/mL IL6, 3 ng/mL TGFβ and 20 U/mL IL2. Cells were cultured at 37° C. and 5% CO2 for 3 days. Supernatants were collected and the accumulated IL-17 in culture was measured by using MULTI-SPOT® Cytokine Plate following manufacture's instruction (Meso Scale Discovery). The plate was read using Sector Imager 6000, and IL-17 concentration was extrapolated from the standard curve. The IC50s were determined by GraphPad.
The target in experiment [2] is human RORγt LBD fused to the DNA binding domain of the GAL4 protein (Homo sapiens (Human), UniProt P51449). The experiment can be described thus: RORγt (LBD) reporter assay in HEK293T cells. The experiment is classed as cell-based. Also noted: RORγt (LBD) Reporter Assay, % inhibition: dose or concentration left out as unconfirmed. As to conditions: for inhibition at 6 µM: HEK-293T, read-out: RORγt (LBD) Reporter Assay, % inhibition @ 6 μM, @ 6 μM. (In a reporter assay the amount or activity of a reporter protein is the signal.)
Chain of human RORγt LBD fused to the DNA binding domain of the GAL4 protein (P51449 258-518): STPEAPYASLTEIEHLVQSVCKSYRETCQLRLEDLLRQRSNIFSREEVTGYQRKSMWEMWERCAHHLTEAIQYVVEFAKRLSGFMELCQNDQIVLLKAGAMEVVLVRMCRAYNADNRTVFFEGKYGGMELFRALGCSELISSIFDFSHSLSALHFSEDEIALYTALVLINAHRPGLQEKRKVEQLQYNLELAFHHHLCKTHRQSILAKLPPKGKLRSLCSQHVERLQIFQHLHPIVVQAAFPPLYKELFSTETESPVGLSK
Excerpt: A reporter assay was used to test functional activity of RORγt modulatory compounds on transcriptional activation driven by the RORγt LBD. Cells used in the assay were co-transfected with two constructs. The first construct, pBIND-RORγt LBD, contained the wild type human RORγt LBD fused to the DNA binding domain of the GAL4 protein. The second construct, pGL4.31 (Promega Cat no. C935A), contained multiple GAL4 responsive DNA elements upstream of firefly luciferase.
The pBIND vector contains the GAL4 DNA Binding Domain (GAL4 DBD) and the renilla luciferase gene under control of the SV40 promoter. Renilla luciferase expression serves as a control for transfection efficiency and cell viability.
The reporter assay was performed by transiently transfecting HEK293T cells with 5 μg of pBIND-RORγt LBD or pBIND-RORγt LBD-AF2 and 5 μg pGL4.31 (Promega Cat no. C935A) using Fugene 6 (Invitrogen Cat no. E2691) at a 1:6 ratio of DNA:Fugene 6 in a T-75 flask in which cells were at least 80% confluent. Twenty four hours after bulk transfection, cells were plated into 96-well plates at 50,000 cells/well in phenol-red free DMEM containing 5% Lipid Reduced FCS and Pen/Strep. Six hours after plating, cells were treated with compounds for 24 hours. Media was removed and cells were lysed with 50 μL 1× Glo Lysis Buffer (Promega). Dual Glo Luciferase Reagent (50 μL/well) was then added and firefly luciferase luminescence was read on an Envision after a ten minute incubation. Finally, Stop and Glo reagent (50 L/well) was added and renilla luciferase luminescence was read on an Envision after a ten minute incubation. To calculate the effect of compounds on RORγt activity, the ratio of firefly to renilla luciferase was determined and plotted against compound concentration. Agonist compounds increase RORγt-driven luciferase expression, and antagonist or inverse agonist compounds decrease luciferase expression.

Experiment [3] deals with human RORγt ligand binding domain (RORγt LBD) (Homo sapiens (Human), UniProt P51449). Kind of experiment: RORγt ThermoFluor assay (thermal shift, binding affinity Kd). On the technique in general: In DSF a fluorescence change marks the thermal transition of the protein.
Chain of human RORγt ligand binding domain (RORγt LBD) (P51449 other isoform, or with tags, fused parts or gaps): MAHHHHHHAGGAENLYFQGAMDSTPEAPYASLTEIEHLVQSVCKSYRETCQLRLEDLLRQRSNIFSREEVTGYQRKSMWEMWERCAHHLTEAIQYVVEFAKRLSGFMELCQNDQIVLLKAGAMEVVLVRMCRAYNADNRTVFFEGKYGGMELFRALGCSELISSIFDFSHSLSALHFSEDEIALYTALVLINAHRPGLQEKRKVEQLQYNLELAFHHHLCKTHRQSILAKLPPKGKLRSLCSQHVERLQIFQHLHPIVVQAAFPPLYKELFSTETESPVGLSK
Where [4] appears, read: read-out: ThermoFluor Assay, Kd.
Setting [5] is: read-out: ThermoFluor ® Assay, Kd.

Each structure is given as a SMILES string. pIC50, pKd: −log10 of the molar value. Structures can show the parent of a compound that is named as a salt. Where two headings read alike, the source gives them in different places. Some results are limits rather than exact numbers.

In the case of `COc1nc2ccc(C(O)(c3sc(C)nc3C)c3cnnn3C)cc2c(Cl)c1C` (single isomer, unassigned) [Example 13c, (4-Chloro-2-methoxy-3-methylquinolin-6-yl)(2,4-dimethylthiazol-5-yl)(1-methyl-1H-1,2,3-triazol-5-yl)methanol], the pIC50 in experiment [1] (Homo sapiens) is 7.19.
The same measure, in the same setting: in the case of `Cc1nc(C)c(C(O)(c2ccc3nc(N4CCC4)c(OC(C)C)c(Cl)c3c2)c2cnnn2C)s1` (single isomer, unassigned) [Example 82c, [2-Azetidin-1-yl-4-chloro-3-(1-methylethoxy)quinolin-6-yl](2,4-dimethyl-1,3-thiazol-5-yl)(1-methyl-1H-1,2,3-triazol-5-yl)methanol] it was 8.92.
Still for that read-out and setting: as for `COc1nc2ccc(C(O)(c3ccc(C(F)(F)F)nc3)c3cncn3C)cc2c(Cl)c1OC(C)C` (single isomer, unassigned) [Example 95b, [4-Chloro-2-methoxy-3-(1-methylethoxy)quinolin-6-yl](1-methyl-1H-imidazol-5-yl)[6-(trifluoromethyl)pyridin-3-yl]methanol], the figure is 7.21.
`COc1nc2ccc(C(O)(c3cnc(C)n3C)C3CN(C(C)=O)C3)cc2c(Cl)c1CN1CCC(C(F)(F)F)CC1` (single isomer, unassigned) [Example 124b, 1-(3-((4-Chloro-2-methoxy-3-((4-(trifluoromethyl)piperidin-1-yl)methyl)quinolin-6-yl)(1,2-dimethyl-1H-imidazol-5-yl)(hydroxy)methyl)azetidin-1-yl)ethanone] gave a pIC50 in experiment [1] of less than 5.22.
`CC(C)Oc1c(N2CCC2)nc2ccc(C(O)(c3ccc(Cl)cc3)c3cncn3C)cc2c1Cl` (single isomer, unassigned) [Example 94c, [2-Azetidin-1-yl-4-chloro-3-(1-methylethoxy)quinolin-6-yl](4-chlorophenyl)(1-methyl-1H-imidazol-5-yl)methanol]: the pIC50 in experiment [1] (Homo sapiens) is 6.42.
Same read-out and setting: as for `COc1nc2ccc(C(O)(c3ccc(Cl)cc3)c3cncn3C)cc2c(Cl)c1OC(C)C` (single isomer, unassigned) [Example 99b, [4-Chloro-2-methoxy-3-(1-methylethoxy)quinolin-6-yl](4-chlorophenyl)(1-methyl-1H-imidazol-5-yl)methanol], the figure is 5.92; as for `CCOc1c(OC)nc2ccc(C(O)(c3ccc(C(F)(F)F)nc3)c3cncn3C)cc2c1Cl` (single isomer, unassigned) [Example 91c, (4-Chloro-3-ethoxy-2-methoxyquinolin-6-yl)(1-methyl-1H-imidazol-5-yl)[6-(trifluoromethyl)pyridin-3-yl]methanol], 6.28.
In the case of `COc1nc2ccc(C(O)(c3cnc(C)n3C)c3cnc(C)n3C)cc2c(Cl)c1OCc1ccccc1` [Example 75, [3-(benzyloxy)-4-chloro-2-methoxyquinolin-6-yl][bis(1,2-dimethyl-1H-imidazol-5-yl)]methanol], in experiment [2], the negative logarithm of the IC50 (pIC50) is less than 5.22 and the inhibition at 6 µM is -1%. Besides, in experiment [3] (setting [4]), the pKd was 8.05.
With `Cc1ccc(C(O)(c2ccc3nc(Cl)c(CC(F)(F)F)c(N4CCC4)c3c2)c2cnnn2C)c(C)n1` (stereo not shown) [Example 238a, [4-(Azetidin-1-yl)-2-chloro-3-(2,2,2-trifluoroethyl)-6-quinolyl]-(2,6-dimethyl-3-pyridyl)-(3-methyltriazol-4-yl)methanol], in experiment [2], the pIC50 was less than 5.22 and the “RORγt (LBD) Reporter Assay, % inhibition” value is −8%. In addition, the pKd in experiment [3] (setting [5]) was less than 4.62.
As for `COc1nc2ccc([C@](O)(c3ccccc3)C3CCN(C(C)=O)CC3)cc2c(Cl)c1CC1CCOCC1` [Example 4c], in experiment [2], the pIC50 is less than 5.22 and the “RORγt (LBD) Reporter Assay, % inhibition @ 6 μM” value (“RORγt … % inhibition @ 6 μM” below) was −6%. Besides, the pKd in experiment [3] (setting [4]) is 7.28.
As to `COc1nc2ccc(C(O)(c3ccc(C(F)(F)F)nc3)c3cncn3C)cc2c(Cl)c1CCC1CCN(C(C)=O)CC1` (stereo not shown) [Example 32, {3-[2-(1-Acetylpiperidin-4-yl)ethyl]-4-chloro-2-methoxyquinolin-6-yl}(1-methyl-1H-imidazol-5-yl)[6-(trifluoromethyl)pyridin-3-yl]methanol], in experiment [2], the pIC50 is less than 5.22 and the inhibition at 6 µM turned out to be 32%. Also, the pKd in experiment [3] (setting [4]) was 7.41.
On the same counts, the results for `COc1nc2ccc(C(O)(c3ccc(C)nc3C)c3cnnn3C)cc2c(Cl)c1OCCS(C)(=O)=O` (stereo not shown) [Example 70a, {4-Chloro-2-methoxy-3-[2-(methylsulfonyl)ethoxy]quinolin-6-yl}(2,6-dimethylpyridin-3-yl)(1-methyl-1H-1,2,3-triazol-5-yl)methanol] are less than 5.22, 36% and 5.48.
For the compound `Cc1ncc(C(O)c2ccc3nc(Cl)c(OC(C)C)c(Cl)c3c2)n1C` (stereo not shown) [Example 172, (2,4-dichloro-3-isopropoxyquinolin-6-yl)(1,2-dimethyl-1H-imidazol-5-yl)methanol], in experiment [2], the negative-log IC50 (pIC50) was less than 5.22 and the “RORγt (LBD) Reporter Assay, % inhibition” value was determined as 12%. The pKd in experiment [3] (setting [5]) was 4.92.
As for `Cn1cncc1C(O)(c1ccc(C(F)(F)F)nc1)c1ccc2nc(N3CCC3)c(OCc3ccccc3)c(Cl)c2c1` (stereo not shown) [Example 31, [2-Azetidin-1-yl-3-(benzyloxy)-4-chloroquinolin-6-yl](1-methyl-1H-imidazol-5-yl)[6-(trifluoromethyl)pyridin-3-yl]methanol.TFA], in experiment [2], the pIC50 was less than 5.22 and the inhibition at 6 µM was -32%. Moreover, in experiment [3] (setting [4]), the pKd was 7.57.
On the same counts, the results for `COc1nc2ccc(C(O)(c3ccc(C)nc3C)c3cnnn3C)cc2c(Cl)c1OCCN(C)C` (single isomer, unassigned) [Example 74b, {4-Chloro-3-[2-(dimethylamino)ethoxy]-2-methoxyquinolin-6-yl}(2,6-dimethylpyridin-3-yl)(1-methyl-1H-1,2,3-triazol-5-yl)methanol] are less than 5.22, -9% and 5.31.
On to `COc1nc2ccc(C(O)(c3ccc(C(F)(F)F)nc3)c3cncn3C)cc2c(Cl)c1OCc1cccnc1` (single isomer, unassigned) [Example 76b, [4-Chloro-2-methoxy-3-(pyridin-3-ylmethoxy)quinolin-6-yl](1-methyl-1H-imidazol-5-yl)[6-(trifluoromethyl)pyridin-3-yl]methanol], for which, in experiment [2], the negative logarithm of the IC50 (pIC50) is less than 5.22 and the “RORγt … % inhibition @ 6 μM” value is listed as −17%. The negative logarithm of the Kd (pKd) in experiment [3] (setting [4]) is 5.92.
For `COc1nc2ccc(C(O)(c3ccc(C(F)(F)F)nc3)c3cncn3C)cc2c(Cl)c1C1=CCN(C)CC1` (stereo not shown) [Example 33, [4-Chloro-2-methoxy-3-(1-methyl-1,2,3,6-tetrahydropyridin-4-yl)quinolin-6-yl](1-methyl-1H-imidazol-5-yl)[6-(trifluoromethyl)pyridin-3-yl]methanol.TFA], in experiment [2], the pIC50 was less than 5.22 and the inhibition at 6 µM was -32%. The pKd in experiment [3] (setting [4]) is 5.32.
With `COc1nc2ccc(C(O)(c3cncn3C)C3CCN(S(C)(=O)=O)CC3)cc2c(Cl)c1CC1CCOCC1` (single isomer, unassigned) [Example 6c, (4-Chloro-2-methoxy-3-((tetrahydro-2H-pyran-4-yl)methyl)quinolin-6-yl)(1-methyl-1H-imidazol-5-yl)(1-(methylsulfonyl)piperidin-4-yl)methanol], in experiment [2], the pIC50 is less than 5.22 and the “RORγt … % inhibition @ 6 μM” value was found to be 26%. Further, the pKd in experiment [3] (setting [4]) was 6.89.
`COc1nc2ccc(C(O)(c3ccccc3)C3CCN(C(C)=O)CC3)cc2c(Cl)c1CC1CCOCC1` (stereo not shown) [Example 4a, 1-(4-((4-Chloro-2-methoxy-3-((tetrahydro-2H-pyran-4-yl)methyl)quinolin-6-yl)(hydroxy)(phenyl)methyl)piperidin-1-yl)ethanone]: in experiment [2], the pIC50 is less than 5.22 and the inhibition at 6 µM was determined as 24%. The pKd in experiment [3] (setting [4]) was 7.80.
On the same counts, the results for `COc1nc2ccc(C(O)(c3ccc(C)nc3C)c3cnnn3C)cc2c(Cl)c1OCCN1CCCC1` (single isomer, unassigned) [Example 67b, [4-Chloro-2-methoxy-3-(2-pyrrolidin-1-ylethoxy)quinolin-6-yl](2,6-dimethylpyridin-3-yl)(1-methyl-1H-1,2,3-triazol-5-yl)methanol] are less than 5.22, -37% and 6.00.
Regarding `COc1nc2ccc(C(O)(c3ccc(C(F)(F)F)nc3)c3cncn3C)cc2c(Cl)c1OCc1cccnc1` (single isomer, unassigned) [Example 76c, [4-Chloro-2-methoxy-3-(pyridin-3-ylmethoxy)quinolin-6-yl](1-methyl-1H-imidazol-5-yl)[6-(trifluoromethyl)pyridin-3-yl]methanol], in experiment [2], the pIC50 was less than 5.22 and the “RORγt … % inhibition @ 6 μM” value was −35%. Also, the pKd in experiment [3] (setting [4]) was 6.96.
For `COc1nc2ccc(C(O)(c3cnc(C)n3C)c3cnc(C)n3C)cc2c(Cl)c1OC1CCCN(C)C1` (single isomer, unassigned) [Example 51c, (4-Chloro-2-methoxy-3-{[1-methylpiperidin-3-yl]oxy}quinolin-6-yl)[bis(1,2-dimethyl-1H-imidazol-5-yl)]methanol], in experiment [2], the negative-log IC50 (pIC50) was less than 5.22 and the inhibition at 6 µM was -4%. Moreover, the negative-log Kd (pKd) in experiment [3] (setting [4]) was 5.30.
On the same counts, the results for `COc1nc2ccc(C(O)(c3ccc(C)nc3C)c3cnnn3C)cc2c(Cl)c1OCCS(C)(=O)=O` (single isomer, unassigned) [Example 70b, {4-Chloro-2-methoxy-3-[2-(methylsulfonyl)ethoxy]quinolin-6-yl}(2,6-dimethylpyridin-3-yl)(1-methyl-1H-1,2,3-triazol-5-yl)methanol] are less than 5.22, 28% and 5.66.
On to `COc1nc2ccc(C(O)c3cnc(C)n3C)cc2c(Cl)c1OC(C)C` (stereo not shown) [Example 156, (4-chloro-3-isopropoxy-2-methoxyquinolin-6-yl)(1,2-dimethyl-1H-imidazol-5-yl)methanol], for which, in experiment [2], the negative logarithm of the IC50 (pIC50) was less than 5.22 and the “RORγt (LBD) Reporter Assay, % inhibition” value is 34%. For the same compound, the pKd in experiment [3] (setting [5]) was 5.47.
